Three compounds from US9376449B2, “Indole carboxamide derivative” (Astellas Pharma Inc., priority 2012, dated 2016) can be followed below.

For one series, the target named is T1, human MT2 receptor (Homo sapiens, UniProt P49286).
T1 sequence (P49286 1-362): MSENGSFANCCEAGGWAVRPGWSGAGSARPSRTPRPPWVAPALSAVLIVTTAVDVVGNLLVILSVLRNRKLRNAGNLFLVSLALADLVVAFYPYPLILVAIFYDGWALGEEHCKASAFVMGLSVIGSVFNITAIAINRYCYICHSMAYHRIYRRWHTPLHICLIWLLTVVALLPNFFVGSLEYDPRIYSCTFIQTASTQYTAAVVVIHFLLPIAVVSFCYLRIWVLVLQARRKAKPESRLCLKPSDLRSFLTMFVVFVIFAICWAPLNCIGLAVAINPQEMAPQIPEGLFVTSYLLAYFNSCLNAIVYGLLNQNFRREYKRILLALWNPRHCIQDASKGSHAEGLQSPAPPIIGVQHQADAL
Briefly: Activation of human MT2 receptor in receptor-expressing HEK293 cells (intracellular Ca2+, FLIPR). Format: cell-based. As to conditions: for Emax: HEK293, maximum reaction by ramelteon taken as 100%, solvent only 0%; for EC50: HEK293 cells stably expressing human MT2 and Gq/i chimeric G-protein, intracellular Ca2+ by FLIPR. Here is the method: (1) Isolation of Human MT1 and MT2 Receptor and Construction of Expression Vector
A human MT1 receptor gene (GenBank Accession No.: NM_005958.3) and a human MT2 receptor gene (GenBank Accession No.: NM_005959.3) were each introduced into an expression vector pCDNA3.1/Zeo (Invitrogen, Inc.).
(2) Construction of Cells Stably Expressing Human MT1 and Human MT2 Receptor
The introduction was carried out according to the attached instructions, using a Lipofectoamine (registered trademark) 2000 Reagent (Invitrogen, Inc.). Zeocin and hygromycin were used as a resistant drug, and the cell was incubated for 15 days at 0.02 mg/mL and 0.05 mg/mL, respectively, thereby acquiring drug-resistant clones.
(3) Measurement of Intracellular Ca^2+ Concentration by FLIPR (Registered Trademark)
The respective stably expressing cells were dispensed into 96-well poly-D-lysine-coated plates (Falcon Co.) to 40,000 cells/well the day before the experiment, and incubated overnight in a DMEM (Invitrogen, Inc.) medium including 10% FBS at 37° C. and 5% CO2. The medium was replaced with a loading buffer (washing solution (Hank's balanced salt solution (HBSS), 20 mM HEPES-NaOH, 2.5 mM probenecid) including Fluo-4AM (Dojindo Co.) at 4 μM), and incubated for 1 hour at 37° C. and 5% CO2. Thereafter, the cells were washed with a plate washer (ELx405, BIO-TEK Instrument, Inc.) set with the washing solution, and set in an intracellular Ca^2+ concentration measuring systems (FLIPR (registered trademark), Molecular Device Co.). The test compound was dissolved in the washing solution in advance, diluted to a final concentration of −12 to −5 log M, set in a FLIPR (registered trademark) device together with the cells, and added to the cells in the device. At this time, a change in the intracellular Ca^2+ concentrations was measured.
Ex represents Example No. of the test compound.

In series [1] the test system is sleep steps of electroencephalogram. Description: Measurement test of electroencephalogram in rat (sleep-awake cycle). Format: in vivo. Particulars: for sleep action: rat electroencephalogram, 0.1, 1 and 10 mg/kg intraperitoneally; for change in the occupancy in the respective sleep steps of electroencephalogram: any of the doses 0.1, 1 and 10 mg/kg intraperitoneally. How it is done: Test Example 5 Measurement Test of Electroencephalogram in Rat
In order to accustom the animals to operations during the experiment, handling was carried out for about 1 minute for one example once a day from the next day of the animal acquisition to the day before the administration.
(2) Method for Preparing Electroencephalogram Electrode-Implanted Specimen
After the completion of a quarantine period, the animals showing no abnormal health condition were subjected to an electroencephalogram electrode chronic implantation surgery with reference to brain atlas of Pellegrino et al. Under anesthesia with pentobarbital sodium (45 mg/kg, i.p.), the rat was calibrated in a brain stereotaxic apparatus. In the frontal cortex, a monopolar silver ball electrode having a diameter of the tip of about 1 mm was placed on a hard film of the brain. Into the hippocampus, a laminated bipolar electrodes made of stainless steel was stuck. The reference electrode was screwed around the olfactory brain. Further, as for the electromyogram measurement, the lead wire was implanted in the both electrodes about 1 cm between the electrodes in the neck portion. The other end was exposed to the head portion subcutaneously. The electrodes and the lead wires were subjected to soldering with connector sockets and fixed to the skull with a dental resin or the like.
(3) Sorting and Grouping of Animals
It was confirmed that twenty five rat examples which had been subjected to an electroencephalogram electrode chronic implantation surgery were recovered from the invasion of the surgery, and stable electroencephalogram were obtained therefrom. The weights of the animals were measured after 6 days from the surgery using an electronic scale balance the day before the first administration, and twenty rats were chosen in the descending order and distributed to perform administration. The administration order for the test materials was determined by a stratified random allocation method using a random number function of a spreadsheet software Excel (Microsoft Corporation).
The rats were accommodated in a measurement cage under rat feeding and water supply on the morning of the day of administration, and accustomed to the measurement environment. After measuring the weight using an electronic scale balance, a lead wire and a connector socket were connected 30 minutes or more before the start of the electroencephalogram measurement, and the rat was accustomed in the measurement state under no anesthesia and no custody. The test compounds (solvent, 0.1 mg/kg, 1 mg/kg, and 10 mg/kg) were intraperitoneally administered to the rats and the electroencephalogram was measured continuously until 6 hours after the administration.
The frequency of brain wave were acquired by applying electrical signals of electroencephalogram and of electromyogram an electroencephalogram system and using an electroencephalogram frequency analysis program of a personal computer from the electroencephalograph system. In addition, the image signals of the electroencephalogram waveform were applied to an EEG video system and recorded on a DVD recorder. The behavior observation was carried out through a video camera at the same time as the electroencephalogram measurement and the images were also recorded with the DVD recorder.
(i) Spontaneous Electroencephalogram
The presence or absence of abnormality in the electroencephalogram waveform in up to 6 hours from immediately after the administration, to each animal, respectively, was observed.
The analysis of a sleep-awake cycle was visually carried out using a sleep stage display-supporting program based on the electroencephalogram waveforms acquired with an electroencephalogram frequency analysis program. […]

The subject of another series is 3T3. Briefly: In vitro 3T3 NRU phototoxicity test. Format: cell-based. How it is done:
Test Example 6 Drug Pharmacokinetic Test, Safety Pharmacology Test, and Toxicity Test
Using some Example compounds of the present invention, a drug Pharmacokinetic test, a safety pharmacology test, and a toxicity test were carried out.
(iii) For the toxicity test, for example, an in vitro phototoxicity test was carried out. The evaluation of the in vitro phototoxicity test was carried out in accordance with Guidance for industry photosafety testing, Center for Drug Evaluation and Research Food and Drug Administration, 2003, which is a guideline of FDA (U.S. Food and Drug Administration), and Note for guidance on photosafety testing (CPMP/SWP/398/01, 2002) which is a guideline of EMA (European Medicines Agency), and the method described in OECD guideline for testing of chemicals 432: In vitro 3T3 NRU phototoxicity test, 2004, which is a test method described in the report of OECD.

For the compound `CCC(=O)NCC[C@@H]1CCc2ccc3c(c21)CCO3` [Ramelteon, reference compound], on human MT2 receptor, the Emax (in general, the greatest response seen or fitted, relative to the assay's reference) came out at 100% and the midpoint of the response, the EC50, lay at 1.1 nM. Further, the sleep action entry in series [1] is listed as “there is a sleep action”. Besides, in series [1] (rat, 0.1 mg/kg intraperitoneally, up to 6 hours), the “occupancy of the sleep step of electroencephalogram” value was “tendency that the occupancy of the sleep step of electroencephalogram from a dose of 0.1 mg/kg increases”. For the same compound, the “occupancy of the respective sleep step” value in series [1] (rat, 1 mg/kg intraperitoneally, up to 6 hours) is on record as “significantly increases”.

Take `CNC(=O)c1[nH]c2ccc(OC)cc2c1CCNC(=O)C(F)F` [Ex 2, 3-{2-[(difluoroacetyl)amino]ethyl}-5-methoxy-N-methyl-1H-indole-2-carboxamide]: the phototoxicity action entry in the series with 3T3 is “no phototoxicity action”. Also, at human MT2 receptor, the Emax worked out at 109% and the EC50 (as a rule, the concentration that produces a half-maximal response) amounted to 28 nM. In series [1], the sleep action entry is “there was no sleep action”. For the same compound, in series [1] (rat), the “change in the occupancy in the respective sleep steps of electroencephalogram” value is recorded as “no change in the occupancy in the respective sleep steps of electroencephalogram could not be seen”.

Turning to `CNC(=O)c1[nH]c2cc(F)c(OC)cc2c1CCNC(C)=O` [Ex 17], the phototoxicity action result in the series with 3T3 is recorded as “no phototoxicity action”. At human MT2 receptor, this compound returned an Emax of 94% and a 50% effective concentration (EC50) of 58 nM. Further, the sleep action entry in series [1] was “there was no sleep action”. In series [1] (rat), the “change in the occupancy in the respective sleep steps of electroencephalogram” value is given as “no change in the occupancy in the respective sleep steps of electroencephalogram could not be seen”.
